Data taken from patent US11926616B2, “Aminopyrazine diol compounds as PI3K-γ inhibitors” (Incyte Corporation, priority 2018, dated 2024).
Where two headings read alike, the source gives them in different places.

Assays:
[1] = target: PI3Kγ (p110γ) Recombinant Human Protein (Homo sapiens (Human), UniProt P48736); test: PI3K-γ Scintillation Proximity Assay; format: biochemical; conditions: 20 μM PIP2, 2 μM ATP, 13 nM PI3Kγ, 120 min, room temperature
Description: Example B. PI3K-γ Scintillation Proximity Assay Materials: [γ-^33P]ATP (10 mCi/mL) and Wheat Germ Agglutinin (WGA) YSi SPA Scintillation Beads was purchased from Perkin Elmer (Waltham, MA). Lipid kinase substrate, D-myo-Phosphatidylinositol 4,5-bisphosphate (PtdIns(4,5)P2)D (+)-sn-1,2-di-O-octanoylglyceryl, 3-O-phospho linked (PIP2), CAS 204858-53-7, was purchased from Echelon Biosciences (Salt Lake City, UT). PI3Kγ (p110γ) Recombinant Human Protein was purchased from Life technology (Grand Island, NY). ATP, MgCl2, DTT, EDTA, MOPS and CHAPS were purchased from Sigma Aldrich (St. Louis, MO). The kinase reaction was conducted in polystyrene 384-well Greiner Bio-one white plate from Thermo Fisher Scientific in a final volume of 25 μL. Inhibitors were first diluted serially in DMSO and added to the plate wells before the addition of other reaction components. The final concentration of DMSO in the assay was 2%. The PI3Kγ assay was carried out at room temperature in 20 mM MOPS, pH 6.7, 10 mM MgCl2, 5 mM DTT and CHAPS 0.03%. Reactions were initiated by the addition of ATP, the final reaction mixture consisted of 20 μM PIP2, 2 μM ATP, 0.5 μCi [γ-^33P] ATP, 13 nM PI3Kγ. Reactions were incubated for 120 min and terminated by the addition of 40 μL SPA beads suspended in quench buffer: 163 mM potassium phosphate pH 7.8, 20% glycerol, 25 mM EDTA. The final concentration of SPA beads is 1.0 mg/mL. After the plate sealing, plates were shaken overnight at room temperature and centrifuged at 1500 rpm for 10 min, the radioactivity of the product was determined by scintillation counting on Topcount (Perkin-Elmer). IC50 determination was performed by fitting the curve of percent of the solvent control activity versus the log of the inhibitor concentration using the GraphPad Prism 6.0 software.

[2] = target: PI3Kδ (p110δ/p85α) Recombinant Human Protein (Homo sapiens (Human), UniProt O00329); test: PI3Kδ Scintillation Proximity Assay; format: biochemical; conditions: 20 μM PIP2, 2 μM ATP, 3.4 nM PI3Kδ, 120 min, room temperature
Description: Example C. PI3Kδ Scintillation Proximity Assay Materials: [γ-^33P]ATP (10 mCi/mL) and Wheat Germ Agglutinin (WGA) YSi SPA Scintillation Beads was purchased from Perkin Elmer (Waltham, MA). Lipid kinase substrate, D-myo-Phosphatidylinositol 4,5-bisphosphate (PtdIns(4,5)P2)D (+)-sn-1,2-di-O-octanoylglyceryl, 3-O-phospho linked (PIP2), CAS 204858-53-7, was purchased from Echelon Biosciences (Salt Lake City, UT). PI3Kδ (p110δ/p85α) Recombinant Human Protein was purchased from Eurofins (St Charles, MO). ATP, MgCl2, DTT, EDTA, MOPS and CHAPS were purchased from Sigma Aldrich (St. Louis, MO). The kinase reaction was conducted in polystyrene 384-well Greiner Bio-one white plate from Thermo Fisher Scientific in a final volume of 25 μL. Inhibitors were first diluted serially in DMSO and added to the plate wells before the addition of other reaction components. The final concentration of DMSO in the assay was 2%. The PI3Kδ assay was carried out at room temperature in 20 mM MOPS, pH 6.7, 10 mM MgCl2, 5 mM DTT and CHAPS 0.03%. Reactions were initiated by the addition of ATP, the final reaction mixture consisted of 20 μM PIP2, 2 μM ATP, […] [γ-^33P] ATP, 3.4 nM PI3Kδ. Reactions were incubated for 120 min and terminated by the addition of 40 μL SPA beads suspended in quench buffer: 163 mM potassium phosphate pH 7.8, 20% glycerol, 25 mM EDTA. The final concentration of SPA beads is 1.0 mg/mL. After the plate sealing, plates were shaken overnight at room temperature and centrifuged at 1500 rpm for 10 min, the radioactivity of the product was determined by scintillation counting on Topcount (PerkinElmer). IC50 determination was performed by fitting the curve of percent of the solvent control activity versus the log of the inhibitor concentration using the GraphPad Prism 6.0 software.

[3] = system: Phosphorylated Ribosomal Protein S6 (RPS6) in THP-1 cells; test: THP-1 RPS6 ELISA Assay; format: cell-based, Human; conditions: THP-1 cells, serum starved, 2 hours compound, 10 nM MCP-1 for 15 minutes, Phospho-RPS6 ELISA, read-out: PI3Kγ_THP1_RPS6_ELISA IC50
Experimental: Example A. THP-1 RPS6 ELISA Assay
To measure the Phosphorylated Ribosomal Protein S6 (RPS6) in cell lysates, THP-1 cells (Human Acute Monocytic Leukemia) are purchased from ATCC (Manassas, VA) and maintained in RPMI with 10% FBS (Gibco/Life Technologies, Carlsbad, CA). For the assay, THP-1 cells are serum starved overnight in RPMI, then plated in RPMI (2×10^5 cells/well in 90 μL) into 96-well flat-bottom tissue culture treated plates (Corning, Corning, NY), in the presence or absence of a concentration range of test compounds. Covered plates are incubated for 2 hours at 37° C., 5% CO2 then treated with or without 10 nM MCP-1(MYBioSource, San Diego, CA) for 15 minutes at 37° C., 5% CO2. Plates are centrifuged at 1600 RPM and supernatants are removed. Cells are lysed in Lysis Buffer (Cell Signaling, Danvers, MA) with Protease Inhibitor (Calbiochem/EMD, Germany), PMSF (Sigma, St Louis MO), HALTS (Thermo Fisher, Rockford, IL) for 30 min on wet ice. Cell lysates are frozen at −80° C. before testing. The lysates are tested in the Human/Mouse/Rat Phospho-RPS6 ELISA (R&D Systems, Inc. Minn, MN). The plate is measured using a microplate reader (SpectraMax M5—Molecular Devices, LLC Sunnyvale, CA) set to 450 nm with a wavelength correction of 540. IC50 determination is performed by fitting the curve of inhibitor percent inhibition versus the log of the inhibitor concentration using the GraphPad Prism 5.0 software.

PI3Kδ (p110δ/p85α) Recombinant Human Protein, sequence (O00329 whole entry): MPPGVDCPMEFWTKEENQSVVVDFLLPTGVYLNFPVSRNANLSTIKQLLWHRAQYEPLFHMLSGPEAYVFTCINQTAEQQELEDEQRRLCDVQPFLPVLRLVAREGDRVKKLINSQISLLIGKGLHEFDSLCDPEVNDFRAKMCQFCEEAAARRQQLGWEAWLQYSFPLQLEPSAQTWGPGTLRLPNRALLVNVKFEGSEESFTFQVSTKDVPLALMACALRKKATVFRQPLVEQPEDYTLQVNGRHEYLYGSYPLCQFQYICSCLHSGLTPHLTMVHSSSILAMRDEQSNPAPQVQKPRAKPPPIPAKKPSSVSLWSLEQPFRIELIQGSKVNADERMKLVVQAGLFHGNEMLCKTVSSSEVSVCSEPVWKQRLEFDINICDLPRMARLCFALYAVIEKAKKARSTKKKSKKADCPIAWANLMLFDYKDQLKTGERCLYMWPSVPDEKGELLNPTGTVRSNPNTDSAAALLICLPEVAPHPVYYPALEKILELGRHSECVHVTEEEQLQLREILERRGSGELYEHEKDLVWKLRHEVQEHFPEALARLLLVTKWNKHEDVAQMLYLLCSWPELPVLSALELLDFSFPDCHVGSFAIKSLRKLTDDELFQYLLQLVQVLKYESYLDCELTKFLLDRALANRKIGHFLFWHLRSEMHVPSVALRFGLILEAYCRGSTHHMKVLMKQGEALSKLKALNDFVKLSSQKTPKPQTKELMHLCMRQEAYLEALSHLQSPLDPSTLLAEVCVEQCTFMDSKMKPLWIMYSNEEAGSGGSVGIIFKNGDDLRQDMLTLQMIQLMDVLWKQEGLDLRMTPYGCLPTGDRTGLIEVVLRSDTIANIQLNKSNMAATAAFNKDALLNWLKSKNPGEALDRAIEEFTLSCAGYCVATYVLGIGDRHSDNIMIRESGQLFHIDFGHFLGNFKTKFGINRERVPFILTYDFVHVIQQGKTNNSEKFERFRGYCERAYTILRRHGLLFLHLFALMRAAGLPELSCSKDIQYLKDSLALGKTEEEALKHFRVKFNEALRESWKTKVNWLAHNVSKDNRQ
PI3Kδ (p110δ/p85α) Recombinant Human Protein, sequence (P27986 whole entry partner): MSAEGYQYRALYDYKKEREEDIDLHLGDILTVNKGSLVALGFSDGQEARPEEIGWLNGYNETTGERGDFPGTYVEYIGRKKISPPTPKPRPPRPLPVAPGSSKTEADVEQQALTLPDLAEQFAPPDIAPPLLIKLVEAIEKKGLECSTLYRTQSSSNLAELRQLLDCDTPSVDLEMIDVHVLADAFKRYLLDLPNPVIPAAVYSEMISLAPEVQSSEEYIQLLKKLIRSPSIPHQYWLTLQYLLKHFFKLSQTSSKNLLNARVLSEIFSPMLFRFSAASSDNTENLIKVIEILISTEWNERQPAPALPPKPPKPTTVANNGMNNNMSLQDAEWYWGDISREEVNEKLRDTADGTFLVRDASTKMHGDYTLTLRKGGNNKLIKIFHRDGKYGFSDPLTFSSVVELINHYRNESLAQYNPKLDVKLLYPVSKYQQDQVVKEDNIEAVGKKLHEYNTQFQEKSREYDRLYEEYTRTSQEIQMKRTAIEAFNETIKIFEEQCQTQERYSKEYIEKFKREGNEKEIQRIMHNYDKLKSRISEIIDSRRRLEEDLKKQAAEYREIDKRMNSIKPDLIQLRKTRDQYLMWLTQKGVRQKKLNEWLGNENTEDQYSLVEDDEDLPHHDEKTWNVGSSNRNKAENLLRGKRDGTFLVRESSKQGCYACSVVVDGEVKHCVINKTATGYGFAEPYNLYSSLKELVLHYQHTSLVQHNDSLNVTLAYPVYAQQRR
PI3Kγ (p110γ) Recombinant Human Protein, sequence (P48736 whole entry): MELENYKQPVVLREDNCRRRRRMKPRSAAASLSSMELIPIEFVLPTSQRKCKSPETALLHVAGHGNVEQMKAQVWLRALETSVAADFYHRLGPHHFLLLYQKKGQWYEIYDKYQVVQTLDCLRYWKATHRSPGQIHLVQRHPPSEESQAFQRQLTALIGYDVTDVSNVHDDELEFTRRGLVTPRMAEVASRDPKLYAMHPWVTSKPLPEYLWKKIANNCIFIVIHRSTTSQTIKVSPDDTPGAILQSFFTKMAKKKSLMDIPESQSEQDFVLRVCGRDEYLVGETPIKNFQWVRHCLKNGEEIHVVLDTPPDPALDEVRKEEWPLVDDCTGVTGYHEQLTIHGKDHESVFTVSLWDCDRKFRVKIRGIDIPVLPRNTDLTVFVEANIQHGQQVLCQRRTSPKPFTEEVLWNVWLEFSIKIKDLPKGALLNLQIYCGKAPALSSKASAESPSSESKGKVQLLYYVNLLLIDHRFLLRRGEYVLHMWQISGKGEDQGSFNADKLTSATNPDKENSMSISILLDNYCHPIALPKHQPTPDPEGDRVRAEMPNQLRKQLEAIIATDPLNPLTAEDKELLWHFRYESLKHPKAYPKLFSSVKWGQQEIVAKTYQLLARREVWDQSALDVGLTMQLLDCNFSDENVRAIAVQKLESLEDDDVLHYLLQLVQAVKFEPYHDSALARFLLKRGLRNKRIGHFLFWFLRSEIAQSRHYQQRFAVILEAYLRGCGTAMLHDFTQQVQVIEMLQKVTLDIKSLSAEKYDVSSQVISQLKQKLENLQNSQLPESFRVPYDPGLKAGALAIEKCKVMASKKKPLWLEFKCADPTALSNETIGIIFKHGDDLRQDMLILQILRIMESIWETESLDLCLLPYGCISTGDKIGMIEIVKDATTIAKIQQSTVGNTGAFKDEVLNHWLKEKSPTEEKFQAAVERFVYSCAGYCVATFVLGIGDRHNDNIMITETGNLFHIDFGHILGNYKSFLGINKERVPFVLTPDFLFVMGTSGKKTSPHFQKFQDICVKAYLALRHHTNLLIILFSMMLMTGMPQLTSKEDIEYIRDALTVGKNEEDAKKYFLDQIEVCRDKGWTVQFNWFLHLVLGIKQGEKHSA

[2H]C([2H])([2H])c1ccc(C(O)(CO)C(F)(F)F)cc1-c1cnc(N)c(C(=O)N[C@H]2CCCC[C@@H]2O)n1 (single isomer, unassigned) [Example 27]
IC50 [1]: ≤ 100 nM
IC50 [2]: ≤ 500 nM
IC50 ([3]; Homo sapiens): < 100 nM

[2H]C([2H])([2H])c1ccc(C(O)(CO)C(F)(F)F)cc1-c1cnc(N)c(C(=O)NC2CCOCC2O)n1 (single isomer, unassigned) [Example 28]
IC50 [1]: ≤ 100 nM
IC50 [2]: ≤ 500 nM
IC50 ([3]; Homo sapiens): < 100 nM

[2H]C([2H])([2H])c1ccc(C(O)(CO)C(F)(F)F)cc1-c1cnc(N)c(C(=O)N[C@H]2C[C@](O)(C(F)(F)F)C2)n1 (single isomer, unassigned) [Example 29]
IC50 [1]: ≤ 100 nM
IC50 [2]: ≤ 100 nM
IC50 ([3]; Homo sapiens): < 100 nM

[2H]C([2H])([2H])c1ccc(C(O)(CO)C(F)(F)F)cc1-c1cnc(N)c(C(=O)N[C@]2(C)C[C@H](O)C2)n1 (single isomer, unassigned) [Example 30]
IC50 [1]: ≤ 100 nM
IC50 [2]: ≤ 100 nM
IC50 ([3]; Homo sapiens): < 100 nM

[2H]C([2H])([2H])c1ccc(C(O)(CO)C(F)(F)F)cc1-c1cnc(N)c(C(=O)NC23CCC(CO)(C2)C3)n1 (single isomer, unassigned) [Example 31]
IC50 [1]: ≤ 100 nM
IC50 [2]: ≤ 100 nM
IC50 ([3]; Homo sapiens): < 100 nM

[2H]C([2H])([2H])c1ccc(C(O)(CO)C(F)(F)F)cc1-c1cnc(N)c(C(=O)NC23CCC(O)(C2)C3)n1 (single isomer, unassigned) [Example 37]
IC50 [1]: ≤ 100 nM
IC50 [2]: ≤ 100 nM
IC50 ([3]; Homo sapiens): < 100 nM

[2H]C([2H])([2H])c1ccc(C(O)(CO)C(F)F)cc1-c1cnc(N)c(C(=O)N[C@H]2CCCC[C@@H]2O)n1 (single isomer, unassigned) [Example 38]
IC50 [1]: ≤ 100 nM
IC50 [2]: < 2000 nM
IC50 ([3]; Homo sapiens): < 500 nM

[2H]C([2H])([2H])c1ccc(C(O)(CO)C(F)F)cc1-c1cnc(N)c(C(=O)N[C@@H]2CCCC[C@H]2O)n1 (single isomer, unassigned) [Example 39]
IC50 [1]: ≤ 100 nM
IC50 [2]: < 2000 nM
IC50 ([3]; Homo sapiens): < 500 nM

[2H]C([2H])([2H])c1ccc(C(O)(CO)C(F)F)cc1-c1cnc(N)c(C(=O)NC23CCC(C#N)(C2)C3)n1 (single isomer, unassigned) [Example 40]
IC50 [1]: ≤ 100 nM
IC50 [2]: ≤ 100 nM
IC50 ([3]; Homo sapiens): < 100 nM

[2H]C([2H])([2H])c1ccc(C(O)(CO)C(F)F)cc1-c1cnc(N)c(C(=O)NC2CCOCC2)n1 (single isomer, unassigned) [Example 41]
IC50 [1]: ≤ 100 nM
IC50 [2]: ≤ 100 nM
IC50 ([3]; Homo sapiens): < 100 nM

Cc1ccc(C(O)(CO)C(F)F)cc1-c1cnc(N)c(C(=O)NC2CCOCC2)n1 (single isomer, unassigned) [Example 42]
IC50 [1]: ≤ 100 nM
IC50 [2]: ≤ 100 nM
IC50 ([3]; Homo sapiens): < 100 nM

Cc1ccc([C@](O)(CO)C(F)F)cc1-c1cnc(N)c(C(=O)N[C@@H](C)CO)n1 (single isomer, unassigned) [Example 43]
IC50 [1]: ≤ 100 nM
IC50 [2]: ≤ 500 nM
IC50 ([3]; Homo sapiens): < 500 nM

Cc1ccc(C(O)(CO)C(F)F)cc1-c1cnc(N)c(C(=O)NC23CCC(O)(CC2)C3)n1 (single isomer, unassigned) [Example 44, 3-Amino-6-(5-(1,1-difluoro-2,3-dihydroxypropan-2-yl)-2-methylphenyl)-N-(4-hydroxybicyclo[2.2.1]heptan-1-yl)pyrazine-2-carboxamide]
IC50 [1]: ≤ 100 nM
IC50 [2]: ≤ 100 nM
IC50 ([3]; Homo sapiens): < 100 nM

Cc1ccc(C(O)(CO)C(F)F)cc1-c1cnc(N)c(C(=O)NC23CCC(C#N)(C2)C3)n1 (single isomer, unassigned) [Example 48, 3-Amino-N-(4-cyanobicyclo[2.1.1]hexan-1-yl)-6-(5-(1,1-difluoro-2,3-dihydroxypropan-2-yl)-2-methylphenyl)pyrazine-2-carboxamide]
IC50 [1]: ≤ 100 nM
IC50 [2]: ≤ 100 nM
IC50 ([3]; Homo sapiens): < 100 nM

[2H]C([2H])([2H])c1ccc(C(O)(C(O)C(F)(F)F)C(F)(F)F)cc1-c1cnc(N)c(-c2c[nH]nc2C)n1 (stereo not drawn) [Example 21, 2-(3-(5-Amino-6-(3-methyl-1H-pyrazol-4-yl)pyrazin-2-yl)-4-(methyl-d3)phenyl)-1,1,1,4,4,4-hexafluorobutane-2,3-diol]
IC50 [1]: ≤ 100 nM
IC50 [2]: ≤ 100 nM
IC50 ([3]; Homo sapiens): < 100 nM

Cc1ccc(C(O)(C(C)(C)O)C(F)(F)F)cc1-c1cnc(N)c(C(=O)NC2CCOCC2)n1 (stereo not drawn) [Example 22, 3-Amino-6-(2-methyl-5-(1,1,1-trifluoro-2,3-dihydroxy-3-methylbutan-2-yl)phenyl)-N-(tetrahydro-2H-pyran-4-yl)pyrazine-2-carboxamide]
IC50 [1]: ≤ 100 nM
IC50 [2]: ≤ 500 nM
IC50 ([3]; Homo sapiens): < 100 nM

Cc1ccc(C(O)(CO)C(F)(F)F)cc1-c1cnc(N)c(C2CN(S(=O)(=O)c3ccn(C)n3)C2)n1 (stereo not drawn) [Example 23, 2-(3-(5-Amino-6-(1-((1-methyl-1H-pyrazol-3-yl)sulfonyl)azetidin-3-yl)pyrazin-2-yl)-4-methylphenyl)-3,3,3-trifluoropropane-1,2-diol]
IC50 [1]: ≤ 100 nM
IC50 [2]: ≤ 500 nM
IC50 ([3]; Homo sapiens): < 500 nM

Cc1ccc([C@](O)(CO)C(F)F)cc1-c1cnc(N)c(C(=O)N2CCC[C@@H]2CO)n1 [Example 45, (3-Amino-6-(5-((S)-1,1-difluoro-2,3-dihydroxypropan-2-yl)-2-methylphenyl)pyrazin-2-yl)((R)-2-(hydroxymethyl)pyrrolidin-1-yl)methanone]
IC50 [1]: ≤ 100 nM
IC50 [2]: < 2000 nM
IC50 [3]: < 500 nM

Cc1ccc(C(O)(CO)C(F)F)cc1-c1cnc(N)c(C(=O)NC2(C)CCOC2)n1 [Example 47, 3-amino-6-(5-((S)-1,1-difluoro-2,3-dihydroxypropan-2-yl)-2-methylphenyl)-N-(3-methyltetrahydrofuran-3-yl)pyrazine-2-carboxamide]
IC50 [1]: ≤ 100 nM
IC50 [2]: ≤ 100 nM
IC50 ([3]; Homo sapiens): < 100 nM
